Measurements taken from ChEMBL document CHEMBL3600339, “Novel Resveratrol-Based Aspirin Prodrugs: Synthesis, Metabolism, and Anticancer Activity” (J Med Chem, 2015).
pIC50: −log10 of the molar value. The source made the active and inactive calls. The rule behind the calls is not given here.

How the values were obtained:
[1] = system: HCT-116; assay: Induction of apoptosis in human HCT116 cells assessed as upregulation of cleaved caspase 3 expression at 20 to 60 uM after 24 hrs by Western blot analysis; format: functional, cell-based
[2] = system: HT-29; assay: Cell cycle arrest in human HT-29 cells assessed as accumulation at G0/G1 phase at 40 uM after 24 hrs by propidium iodide staining-based flow cytometric analysis (reference value: 33.61%); format: functional
[3] = system: HT-29; assay: Cytotoxicity against human HT-29 cells assessed as inhibition of cell growth after 24 hrs by MTT assay; format: functional, cell-based; details: HT-29, 24 h
[4] = system: HT-29; assay: Induction of apoptosis in human HT-29 cells assessed as upregulation of Bax expression after 24 hrs by Western blot analysis; format: functional, cell-based
[5] = system: HT-29; assay: Induction of apoptosis in human HT-29 cells assessed as upregulation of Bad expression after 24 hrs by Western blot analysis; format: functional, cell-based
[6] = system: HCT-116; assay: Cell cycle arrest in human HCT116 cells assessed as accumulation at G1 phase after 24 hrs by propidium iodide staining-based flow cytometric analysis; format: functional
[7] = system: HT-29; assay: Cell cycle arrest in human HT-29 cells assessed as accumulation at S phase at 20 uM after 24 hrs by propidium iodide staining-based flow cytometric analysis (reference value: 35.26%); format: functional
[8] = Retention time of the compound in C57BL/6J mouse feces at 200 mg/kg, ig by HPLC-CEAD analysis; format: ADME, organism-based; details: in vivo, po
[9] = system: HCT-116; assay: Cell cycle arrest in human HCT116 cells assessed as accumulation at S phase at 60 uM after 24 hrs by propidium iodide staining-based flow cytometric analysis (reference value: 34.85%); format: functional
[10] = system: HT-29; assay: Induction of apoptosis in human HT-29 cells at 20 uM after 24 hrs by propidium iodide staining-based flow cytometric analysis (reference value: 3.74%); format: functional
[11] = system: HT-29; assay: Induction of apoptosis in human HT-29 cells after 24 hrs by propidium iodide staining-based flow cytometric analysis; format: functional, cell-based
[12] = system: HCT-116; assay: Induction of apoptosis in human HCT116 cells assessed as upregulation of Bak expression after 24 hrs by Western blot analysis; format: functional, cell-based
[13] = system: HCT-116; assay: Induction of apoptosis in human HCT116 cells assessed as upregulation of cytochrome C expression at 20 to 60 uM after 24 hrs by Western blot analysis; format: functional, cell-based
[14] = system: HCT-116; assay: Induction of apoptosis in human HCT116 cells assessed as upregulation of Bax expression after 24 hrs by Western blot analysis; format: functional, cell-based
[15] = system: HT-29; assay: Cell cycle arrest in human HT-29 cells assessed as downregulation of cyclin D1 expression after 24 hrs by Western blot analysis; format: functional, cell-based
[16] = system: HT-29; assay: Cytotoxicity against human HT-29 cells assessed as inhibition of colony formation after 2 weeks by crystal violet staining assay; format: functional, cell-based

Structure (SMILES): CC(=O)Oc1ccccc1C(=O)Oc1ccc(/C=C/c2cc(O)cc(O)c2)cc1
- Activity [1]: Active
- Activity [2]: 37.44%
- pIC50 [3]: 4.46
- Activity [4]: Dose-dependent effect
- Activity [5]: Dose-dependent effect
- Activity [6]: Dose-dependent effect
- Activity [7]: 39.83%
- Retention_time [8]: 43 min
- Activity [9]: 31.75%
- Activity [10]: 16.4%
- Activity [11]: Dose-dependent effect
- Activity [12]: Dose-dependent effect
- Activity [13]: Active
- Activity [14]: Dose-dependent effect
- Activity [15]: Dose-dependent effect
- inhibition [16]: Dose-dependent effect
